Measured values: PMC13266999, “Designing Antibiotics with Inherent Resistance to Efflux as a Strategy to Revive Discovery against Multidrug-Resistant Pathogens” (Journal of Medicinal Chemistry, 2026)
Values after ≈ are worked out from the molar mass of the structure shown. Values joined by “and” are separate entries in the source; they are usually repeats but may differ in a detail not shown here. Equal entries are not always repeated. Where two headings read alike, the source gives them in different places.

How the values were obtained:
[1] = target: CYP2B6 (Homo sapiens, UniProt P20813); test: CYP inhibition; conditions: HLM, bupropion substrate, 10 μM
Protocol: (§3) Cytochrome P450 inhibition was assessed in vitro using human recombinant enzymes in microsomal preparations. […] Enzyme activity was quantified by monitoring formation of substrate-specific metabolites, and percent inhibition was calculated relative to vehicle control.

[2] = target: CYP2D6 (Homo sapiens, UniProt P10635); test: CYP inhibition; conditions: HLM, dextromethorphan substrate, 10 μM
Protocol: as §3

[3] = target: CYP2C19 (Homo sapiens, UniProt P33261); test: CYP inhibition; conditions: HLM, omeprazole substrate
Protocol: as §3

[4] = target: CYP2C9 (Homo sapiens, UniProt P11712); test: CYP inhibition; conditions: human, human liver microsomes, probe diclofenac, CYP2C9 inhibition, HLM, diclofenac substrate
Protocol: as §3

[5] = system: E. faecium; test: Mutation frequency and agar MIC; assay type: cell-based; conditions: NCTC 12204
Protocol: Mutation frequencies were performed on solid media at supra-inhibitory concentrations. First, the agar MIC was performed to account for any issues in solubility of compounds in solid media. Agar plates were prepared with 2-fold dilutions of compound.
For the mutation frequency assay, bacteria from an overnight culture were grown to mid exponential phase in liquid broth, then 100 μL was spread onto an agar plate containing compound at concentrations above the agar MIC. A Miles-Misra was also conducted on an antibiotic-free agar plate to determine the CFU/mL of the starting population. […] The mutation frequency was calculated by dividing the number of colonies on supra inhibitory con-centration plates by the starting population.

[6] = system: WI38; test: Toxicity in nontumor eukaryotic cell line; assay type: cell-based; conditions: 100 μM, the highest concentration tested
[7] = system: CYP3A; test: CYP inhibition; conditions: HLM; for inhibition at 10 µM: human, human liver microsomes, CYP3A inhibition
Protocol: as §3

[8] = system: NorA overexpressing strain NCTC 13616; test: Reserpine growth (efflux inhibition) assay; conditions: for AUC of growth curve: biological replicates 1-3
Protocol: Statistical analyses were performed with GraphPad Prism V9.5.0. […] Unpaired t tests were used when comparing two samples in the gyrase assays.

[9] = system: SafetyScreen44 targets; test: SafetyScreen44 panel, remaining targets; assay type: binding, human; conditions: 10 μM
Protocol: (§1) Off-target pharmacology was evaluated using the Eurofins SafetyScreen44 in vitro panel. […] Binding assays were performed using radioligand displacement, and enzyme or uptake assays measured inhibition of control activity using validated detection methods (scintillation counting, fluorimetry or photometry). Responses were expressed as percent inhibition of control binding or activity. Based on Eurofins interpretation guidelines, effects ≥50% were considered significant, effects between 25% and 50% weak to moderate, and effects <25% were not considered biologically relevant.

[10] = system: AR (h); test: SafetyScreen44; set-up: species or system human; conditions: agonist radioligand, specific binding, 1.0E-05 M
Protocol: as §1

[11] = system: MRSA ATCC 33591; test: Neutropenic murine thigh infection model; conditions: oral 50 mg/kg TID at 2, 8, and 14 h postinfection; at 26 h
[12] = target: T1, PDE3A (h) (Homo sapiens, UniProt Q14432); test: SafetyScreen44; assay type: biochemical; conditions: enzymatic activity, 1.0E-05 M
T1 construct: purchased Eurofins (SafetyScreen44)
Protocol: as §1

[13] = target: T2, PDE4D2 (h) (Homo sapiens, UniProt Q08499); test: SafetyScreen44; assay type: biochemical; conditions: enzymatic activity, 1.0E-05 M
T2 construct: purchased Eurofins (SafetyScreen44)
Protocol: as §1

[14] = target: T3, acetylcholinesterase (h) (Homo sapiens, UniProt P22303); test: SafetyScreen44; assay type: biochemical; conditions: enzymatic activity, 1.0E-05 M
T3 construct: purchased Eurofins (SafetyScreen44)
Protocol: as §1

[15] = target: T4, COX1(h) (Homo sapiens, UniProt P23219); test: SafetyScreen44; assay type: biochemical; conditions: enzymatic activity, 1.0E-05 M
T4 construct: purchased Eurofins (SafetyScreen44)
Protocol: as §1

[16] = target: T5, COX2(h) (Homo sapiens, UniProt P35354); test: SafetyScreen44; assay type: biochemical; conditions: enzymatic activity, 1.0E-05 M
T5 construct: purchased Eurofins (SafetyScreen44)
Protocol: as §1

[17] = target: T6, Lck kinase (h) (Homo sapiens, UniProt P06239); test: SafetyScreen44; assay type: biochemical; conditions: enzymatic activity, 1.0E-05 M
T6 construct: purchased Eurofins (SafetyScreen44)
Protocol: as §1

[18] = system: S. dysgalactiae; test: MIC (microbroth dilution); assay type: cell-based; conditions: for MIC: Streptococcus dysgalactiae
Method in brief: (§2)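 Microbroth dilution in tryptic soy broth; Streptococcus spp. in cation-adjusted Mueller Hinton broth with 2.5% lysed horse blood, inocula from overnight stationary-phase cultures. MIC is lowest concentration without visible growth, OD600 read. Parallel MICs run with 30 μg/mL polymyxin B nonapeptide (final) as outer-membrane permeabilizer.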

[19] = system: Pseudomonas aeruginosa; test: MIC (microbroth dilution); assay type: cell-based
Method in brief: as §2

Chain of CYP2C19 (P33261 whole entry): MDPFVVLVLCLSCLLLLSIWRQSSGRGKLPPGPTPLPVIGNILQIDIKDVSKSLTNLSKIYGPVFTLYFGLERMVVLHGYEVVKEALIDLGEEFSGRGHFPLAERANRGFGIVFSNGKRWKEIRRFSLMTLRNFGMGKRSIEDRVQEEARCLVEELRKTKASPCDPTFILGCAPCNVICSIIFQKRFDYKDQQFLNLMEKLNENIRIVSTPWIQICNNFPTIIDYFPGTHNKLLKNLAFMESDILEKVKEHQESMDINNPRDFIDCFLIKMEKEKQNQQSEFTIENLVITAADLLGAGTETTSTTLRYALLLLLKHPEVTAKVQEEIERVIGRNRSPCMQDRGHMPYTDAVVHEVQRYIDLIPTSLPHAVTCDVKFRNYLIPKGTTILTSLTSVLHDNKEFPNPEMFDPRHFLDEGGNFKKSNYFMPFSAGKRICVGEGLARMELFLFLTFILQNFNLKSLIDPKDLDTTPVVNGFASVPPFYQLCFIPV
Chain of CYP2B6 (P20813 whole entry): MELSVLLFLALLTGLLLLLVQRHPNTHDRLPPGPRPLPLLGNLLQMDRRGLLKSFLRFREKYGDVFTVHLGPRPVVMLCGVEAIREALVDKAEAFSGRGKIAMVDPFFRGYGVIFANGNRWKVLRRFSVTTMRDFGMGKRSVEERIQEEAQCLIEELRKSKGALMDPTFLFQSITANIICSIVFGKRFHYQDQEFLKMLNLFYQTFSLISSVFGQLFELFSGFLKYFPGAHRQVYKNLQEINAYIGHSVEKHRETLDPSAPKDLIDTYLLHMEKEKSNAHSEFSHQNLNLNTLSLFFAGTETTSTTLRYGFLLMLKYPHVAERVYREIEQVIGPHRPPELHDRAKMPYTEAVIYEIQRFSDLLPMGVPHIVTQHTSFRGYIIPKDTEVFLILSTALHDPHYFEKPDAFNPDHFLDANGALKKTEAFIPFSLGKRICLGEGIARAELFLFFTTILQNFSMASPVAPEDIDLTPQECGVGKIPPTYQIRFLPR
Chain of CYP2D6 (P10635 whole entry): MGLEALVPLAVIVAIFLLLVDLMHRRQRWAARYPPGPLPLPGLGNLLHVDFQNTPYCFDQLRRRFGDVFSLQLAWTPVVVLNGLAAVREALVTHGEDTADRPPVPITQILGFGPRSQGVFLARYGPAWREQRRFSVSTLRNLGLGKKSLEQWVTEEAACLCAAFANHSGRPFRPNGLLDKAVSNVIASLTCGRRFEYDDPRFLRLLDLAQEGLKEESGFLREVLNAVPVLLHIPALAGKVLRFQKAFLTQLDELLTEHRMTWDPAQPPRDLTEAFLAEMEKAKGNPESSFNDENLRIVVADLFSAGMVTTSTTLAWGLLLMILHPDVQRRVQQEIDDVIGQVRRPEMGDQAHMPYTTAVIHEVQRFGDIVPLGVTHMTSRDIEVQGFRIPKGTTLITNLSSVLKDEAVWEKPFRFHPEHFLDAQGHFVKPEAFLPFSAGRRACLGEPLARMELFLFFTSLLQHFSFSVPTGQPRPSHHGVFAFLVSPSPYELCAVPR
T4 sequence (P23219 24-599): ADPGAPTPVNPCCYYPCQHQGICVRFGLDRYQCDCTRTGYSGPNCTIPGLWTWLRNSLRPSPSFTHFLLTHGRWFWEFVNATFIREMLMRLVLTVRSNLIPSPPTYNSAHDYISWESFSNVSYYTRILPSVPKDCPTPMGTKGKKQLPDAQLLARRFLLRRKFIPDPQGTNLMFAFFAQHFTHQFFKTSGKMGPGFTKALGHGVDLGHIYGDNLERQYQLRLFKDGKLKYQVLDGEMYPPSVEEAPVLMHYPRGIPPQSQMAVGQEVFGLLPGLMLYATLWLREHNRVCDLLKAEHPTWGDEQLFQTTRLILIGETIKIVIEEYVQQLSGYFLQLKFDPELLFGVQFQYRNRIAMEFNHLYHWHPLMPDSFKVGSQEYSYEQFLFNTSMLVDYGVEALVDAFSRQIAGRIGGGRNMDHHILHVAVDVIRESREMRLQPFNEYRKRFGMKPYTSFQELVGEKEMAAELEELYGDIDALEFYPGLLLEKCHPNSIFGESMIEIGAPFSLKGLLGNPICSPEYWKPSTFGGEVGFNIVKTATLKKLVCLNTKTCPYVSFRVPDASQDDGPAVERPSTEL
T1 sequence (Q14432 whole entry): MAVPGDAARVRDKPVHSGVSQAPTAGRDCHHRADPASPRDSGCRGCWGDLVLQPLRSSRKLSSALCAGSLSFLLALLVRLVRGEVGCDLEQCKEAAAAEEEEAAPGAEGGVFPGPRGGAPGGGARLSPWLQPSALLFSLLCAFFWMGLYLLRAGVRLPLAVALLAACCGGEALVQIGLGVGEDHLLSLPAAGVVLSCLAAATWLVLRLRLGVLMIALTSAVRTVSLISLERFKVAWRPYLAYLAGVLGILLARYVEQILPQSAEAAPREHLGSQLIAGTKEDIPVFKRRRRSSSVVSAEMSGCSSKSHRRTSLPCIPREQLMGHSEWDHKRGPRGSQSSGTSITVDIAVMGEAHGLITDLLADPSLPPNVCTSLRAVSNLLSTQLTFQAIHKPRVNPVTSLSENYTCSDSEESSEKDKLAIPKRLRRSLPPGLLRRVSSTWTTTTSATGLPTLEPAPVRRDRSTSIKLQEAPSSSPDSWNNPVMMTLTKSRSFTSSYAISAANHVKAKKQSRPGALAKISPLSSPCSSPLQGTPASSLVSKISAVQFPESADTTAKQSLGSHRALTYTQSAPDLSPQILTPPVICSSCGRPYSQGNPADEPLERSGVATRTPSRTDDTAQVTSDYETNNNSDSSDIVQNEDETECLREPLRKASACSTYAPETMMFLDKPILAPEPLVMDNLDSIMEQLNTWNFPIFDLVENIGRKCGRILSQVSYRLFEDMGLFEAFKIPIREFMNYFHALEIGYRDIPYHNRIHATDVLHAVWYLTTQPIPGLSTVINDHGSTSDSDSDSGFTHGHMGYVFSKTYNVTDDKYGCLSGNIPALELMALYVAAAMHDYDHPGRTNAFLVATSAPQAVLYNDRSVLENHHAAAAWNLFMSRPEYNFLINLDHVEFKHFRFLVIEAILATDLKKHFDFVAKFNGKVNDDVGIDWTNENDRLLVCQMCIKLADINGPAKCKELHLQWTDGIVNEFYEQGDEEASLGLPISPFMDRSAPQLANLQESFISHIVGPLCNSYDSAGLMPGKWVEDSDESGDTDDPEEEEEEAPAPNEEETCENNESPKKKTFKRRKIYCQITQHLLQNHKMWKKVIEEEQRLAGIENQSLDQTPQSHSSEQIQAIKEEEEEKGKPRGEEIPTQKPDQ
T3 sequence (P22303 32-614): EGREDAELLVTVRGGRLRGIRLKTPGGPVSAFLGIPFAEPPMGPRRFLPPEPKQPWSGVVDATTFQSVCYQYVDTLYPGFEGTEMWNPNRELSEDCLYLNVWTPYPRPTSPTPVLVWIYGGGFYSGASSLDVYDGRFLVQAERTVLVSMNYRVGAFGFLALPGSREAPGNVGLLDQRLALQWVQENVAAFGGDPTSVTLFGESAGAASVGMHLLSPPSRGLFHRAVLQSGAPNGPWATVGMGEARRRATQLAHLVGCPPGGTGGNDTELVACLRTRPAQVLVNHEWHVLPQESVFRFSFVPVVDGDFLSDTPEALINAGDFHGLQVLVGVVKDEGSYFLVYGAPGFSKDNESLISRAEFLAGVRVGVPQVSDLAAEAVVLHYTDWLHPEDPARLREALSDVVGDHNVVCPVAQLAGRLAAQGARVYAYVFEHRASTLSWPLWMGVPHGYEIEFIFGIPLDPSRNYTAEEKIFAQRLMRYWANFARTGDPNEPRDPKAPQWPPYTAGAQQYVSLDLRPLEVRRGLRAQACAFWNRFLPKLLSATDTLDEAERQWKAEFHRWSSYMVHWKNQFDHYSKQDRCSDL
T2 sequence (Q08499 303-809): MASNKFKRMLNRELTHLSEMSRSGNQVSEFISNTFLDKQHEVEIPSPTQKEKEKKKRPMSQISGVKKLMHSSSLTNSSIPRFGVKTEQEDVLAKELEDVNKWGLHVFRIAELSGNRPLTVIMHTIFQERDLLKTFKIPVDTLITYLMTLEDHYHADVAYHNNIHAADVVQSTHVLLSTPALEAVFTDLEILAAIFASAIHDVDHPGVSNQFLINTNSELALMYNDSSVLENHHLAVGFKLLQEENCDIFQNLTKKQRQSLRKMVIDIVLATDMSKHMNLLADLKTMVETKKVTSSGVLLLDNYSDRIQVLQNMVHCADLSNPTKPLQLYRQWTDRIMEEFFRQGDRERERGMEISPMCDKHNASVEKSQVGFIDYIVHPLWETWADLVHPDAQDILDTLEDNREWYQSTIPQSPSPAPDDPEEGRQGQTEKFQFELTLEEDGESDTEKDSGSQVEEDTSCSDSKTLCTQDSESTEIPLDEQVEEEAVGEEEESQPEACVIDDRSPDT
T5 sequence (P35354 18-604): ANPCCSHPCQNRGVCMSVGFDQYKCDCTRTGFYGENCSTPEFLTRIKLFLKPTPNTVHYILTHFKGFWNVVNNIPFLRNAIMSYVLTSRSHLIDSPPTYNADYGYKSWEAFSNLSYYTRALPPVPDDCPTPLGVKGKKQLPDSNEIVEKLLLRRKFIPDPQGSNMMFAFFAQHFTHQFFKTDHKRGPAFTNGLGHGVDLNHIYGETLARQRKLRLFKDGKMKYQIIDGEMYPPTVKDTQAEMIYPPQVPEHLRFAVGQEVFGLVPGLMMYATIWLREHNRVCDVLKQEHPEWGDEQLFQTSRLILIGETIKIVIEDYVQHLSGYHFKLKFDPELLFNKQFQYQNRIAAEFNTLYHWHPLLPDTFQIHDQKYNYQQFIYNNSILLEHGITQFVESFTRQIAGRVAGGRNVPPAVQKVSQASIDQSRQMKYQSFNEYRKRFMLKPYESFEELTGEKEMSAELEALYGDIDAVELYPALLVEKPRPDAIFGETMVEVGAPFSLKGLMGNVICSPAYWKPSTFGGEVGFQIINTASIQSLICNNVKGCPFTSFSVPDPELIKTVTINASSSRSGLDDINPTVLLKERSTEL

SMILES: Cc1cc(C)nc(N[C@@H]2CCN(c3c(F)cc4c(=O)c(C(=O)O)cn5c4c3OC[C@@H]5C)C2)n1 [Compound 50, (S)-10-((R)-3-((4,6-Dimethylpyrimidin-2-yl)amino)pyrrolidin-1-yl)-9-fluoro-3-methyl-7-oxo-2,3-dihydro-7H-[1,4]oxazino[2,3,4-ij]quinoline-6-carboxylic acid]
- CYP2B6 inhibition [1]: 4.821% and < 10%
- CYP2D6 inhibition [2]: 3.804% and < 10%
- CYP2C19 inhibition ([3]; 10 μM): < 10%
- inhibition at 10 µM ([3]; human, human liver microsomes, probe omeprazole, CYP2C19 inhibition): 9.87%
- inhibition at 10 µM [4]: 16.8%
- Agar MIC [5]: 2 µg/mL
- toxicity in WI38 [6]: nontoxic
- CYP3A inhibition ([7]; midazolam substrate, 10 μM): 10.5%
- inhibition at 10 µM ([7]; probe midazolam, midazolam substrate): 10.5%
- inhibition at 10 µM ([7]; probe testosterone, testosterone substrate): 6.32%
- AUC of growth curve ([8]; 0.25 MIC + R (reserpine)): 2.985 and 3.342 and 3.404
- AUC of growth curve ([8]; 0.25 MIC): 3.519 and 4.693 and 4.851
- AUC of growth curve ([8]; 0.5 MIC + R (reserpine)): 1.548 and 1.586 and 2.254
- AUC of growth curve ([8]; 0.5 MIC): 2.203 and 2.425 and 1.859
- efflux liability in reserpine assay ([8]; 0.5x MIC with vs without reserpine): minimal shift
- inhibition, all other / remaining targets [9]: < 25%
- % Inhibition [10]: 3.169%
- bacterial counts in thigh [11]: 4.6 log10 CFU/g
- reduction relative to the vehicle [11]: 4.1 log10 CFU/g
- inhibition at 10 µM [12]: 12.2%
- inhibition at 10 µM [13]: 31.8%
- inhibition at 10 µM [14]: 34.2%
- inhibition at 10 µM [15]: 15%
- inhibition at 10 µM [16]: 25.9%
- inhibition at 10 µM [17]: 2.87%
- MIC ([18]; 10238, read-out: MIC): ≤ 0.03 µg/mL
- MIC ([18]; 13759, read-out: MIC): ≤ 0.03 µg/mL
- MIC ([18]; 13762, read-out: MIC): ≤ 0.03 µg/mL
- MIC ([18]; 81251, read-out: MIC): ≤ 0.03 µg/mL
- MIC [18]; 81553: 0.125 µg/mL (≈ 0.276 µM)
- MIC ([18]; 84143, read-out: MIC): 0.06 µg/mL (≈ 0.132 µM)
- MIC ([18]; 84557, read-out: MIC): ≤ 0.03 µg/mL
- MIC ([18]; 84574, read-out: MIC): 0.06 µg/mL (≈ 0.132 µM)
- MIC ([18]; n = 8, read-out: modal MIC): ≤ 0.03 µg/mL
- MIC range ([18]; n = 8): ≤ 0.03 to 0.125 µg/mL

SMILES: C[C@H]1COc2c(N3CCN(C)CC3)c(F)cc3c(=O)c(C(=O)O)cn1c23 [Levofloxacin, (S)-9-Fluoro-3-methyl-10-(4-methylpiperazin-1-yl)-7-oxo-2,3-dihydro-7H-[1,4]oxazino[2,3,4-ij]quinoline-6-carboxylic acid, reference compound]
- Agar MIC [5]: 1 µg/mL
- bacterial counts in thigh [11]: 4.51 log10 CFU/g
- MIC ([19]; CAS4, + PMBN): ≤ 0.125 µg/mL
- MIC ([19]; CFL 004 CRCN, + PMBN): 16 µg/mL
- MIC ([19]; GH12, + PMBN): 4 µg/mL
- MIC ([19]; NCTC 10662, + PMBN): ≤ 0.125 µg/mL
- MIC ([19]; NCTC 12903, + PMBN): ≤ 0.125 µg/mL
- MIC ([19]; NCTC 13359, + PMBN): 0.25 µg/mL
- MIC ([19]; PAO1, + PMBN): 0.125 µg/mL
- MIC ([19]; PAO1 ΔmexB, + PMBN): ≤ 0.03 µg/mL
- MIC ([19]; Pseudomonas aeruginosa, CAS4): 2 µg/mL (≈ 5.53 µM)
- MIC ([19]; Pseudomonas aeruginosa, GH12): 64 µg/mL (≈ 177 µM)
- MIC ([19]; Pseudomonas aeruginosa, GH100): 0.25 µg/mL (≈ 0.692 µM)
- MIC ([19]; Pseudomonas aeruginosa, NCTC10662, NCTC 10662): 2 µg/mL (≈ 5.53 µM)
- MIC ([19]; Pseudomonas aeruginosa, NCTC12903, NCTC 12903): 4 µg/mL (≈ 11.1 µM)
- MIC ([19]; Pseudomonas aeruginosa, NCTC13359, NCTC 13359): 4 µg/mL (≈ 11.1 µM)
- MIC ([19]; Pseudomonas aeruginosa, PAO1): 0.5 µg/mL (≈ 1.38 µM)
- MIC ([19]; Pseudomonas aeruginosa, PAO1, PAO1): 2 µg/mL (≈ 5.53 µM)
- MIC ([19]; Pseudomonas aeruginosa, CFL 004 CRCN, read-out: MIC): 128 µg/mL (≈ 354 µM)
- MIC50 ([19]; Pseudomonas aeruginosa, in the presence of PMBN, n = 7 strains): 0.125 µg/mL
